Results reported in patent US11464750B2, “Anticancer agent and use thereof” (priority 2017, dated 2022).
Entries after “also recorded” stand apart in the source; their conditions may differ.

How the values were obtained:
caspase 3 = assay: Western blotting, activated caspase 3, JeKo-1 cells; format: cell-based, human; conditions: 0.5 μM, 48 hours after treatment
Method: Specifically, JeKo-1 cells were cultured for 0 (control), 12, 24, and 48 hours in the presence of 0.5 μM of 3EZ,20Ac-ingenol. In addition. Panc-1 cells were cultured for 0 (control), 12, 24, and 48 hours in the presence of 3 μM of 3EZ,20Ac-ingenol. Subsequently, activation of caspase 3 in the respective cells was detected by Western blotting using an anti-activated-caspase antibody (R & D Systems). Furthermore, as a loading control, actin protein was detected using an anti-actin antibody (Sigma).

[1] = system: phosphorylated H2AX (γH2AX); assay: Western blotting, phosphorylated H2AX, JeKo-1 cells; format: cell-based, human; conditions: 0.5 μM, 12 hours after treatment
Method: Specifically, JeKo-1 cells were cultured for 0 (control), 12, 24 and 48 hours in the presence of 0.5 μM of 3EZ,20Ac-ingenol. In addition, Panc-1 cells were cultured for 0 (control), 12, 24, and 48 hours in the presence of 3 μM of 3EZ,20Ac-ingenol.
Subsequently, phosphorylation of H2AX in the respective cells was detected using an anti-phosphorylated-H2AX antibody (Millipore). In addition, p21 protein was detected using an anti-p21 antibody (Cell Signaling Technology). Furthermore, as a loading control, actin protein was detected using an anti-actin antibody (Sigma).

ATR protein = assay: Western blotting, ATR protein, Panc-1 cells; format: cell-based, human; conditions: 3 μM
Method: (§1) Specifically, JeKo-1 cells were cultured for 0 (control), 12, 24, and 48 hours in the presence of 0.5 μM of 3EZ,20Ac-ingenol. In addition, Panc-1 cells were cultured for 0 (control), 12, 24, and 48 hours in the presence of 3 μM of 3EZ,20Ac-ingenol.
(§2) Subsequently, ATR protein, p53 protein, and phosphorylated p53 (hereinafter also referred to as “p-p53”) protein in the respective cells were respectively detected using an anti-ATR antibody (Cell Signaling Technology), an anti-p53 antibody (Santa Cruz), and an anti-p-p53 antibody (Cell Signaling Technology). Furthermore, as a loading control, actin protein was detected using an anti-actin antibody (Sigma).

p53 protein = assay: Western blotting, p53 protein, JeKo-1 cells; format: cell-based, human; conditions: 0.5 μM, 12 hours until 48 hours after treatment
Method: as §1, §2

[2] = system: phosphorylated Akt (Ser^473); assay: Western blotting, p-Akt (Ser473), BALL-1 cells; format: cell-based, human; conditions: 0.5 μM
Method: (§3) The effect of 3EZ,20Ac-ingenol treatment on a PI3K/Akt signaling pathway was examined. Specifically, BALL-1 cells, TKG0210 cells, and TKG0377 cells were cultured for 48 hours in the presence of 3EZ,20Ac-ingenol at a final concentration of 0.5 μM, and by Western blotting using an anti-p-Akt (Ser^473) antibody (Cell Signaling Technology), phosphorylation of the 473th serine residue of an Akt protein in respective fractions of the entire cell, a nucleus, and a cytoplasm was analyzed. In addition, cells cultured in the absence of 3EZ,20Ac-ingenol were used as controls.
The effect of 3EZ,20Ac-ingenol treatment on PTEN, p-PTEN, and p-Akt of BALL-1 cells was examined. First, BALL-1 cells were cultured for 3, 6, 12, 24, and 48 hours in the presence of 3EZ,20Ac-ingenol at a final concentration of 0.5 μM, and by Western blotting using an anti-PTEN antibody (Santa Cruz), an anti-p-PTEN (Ser^380/Thr^382/383) antibody (Santa Cruz), and an anti-p-Akt (Ser^473) antibody (Cell Signaling Technology), abundances of PTEN, p-PTEN, and p-Akt in the entire cell fraction were analyzed. In addition, cells cultured in the absence of 3EZ,20Ac-ingenol were used as controls.
(§4) BALL-1 cells, TKG0210 cells, and TKG0377 cells were cultured for 24 and 48 hours in the presence of 3EZ,20Ac-ingenol at a final concentration of 0.5 μM, and abundances of p-Akt in the nuclear fraction and the cytoplasm fraction were analyzed by Western blotting. In addition, respective cells cultured in the absence of 3FZ,20Ac-ingenol were used as controls.
The effect of 3EZ,20Ac-ingenol treatment on PTEN and p-Akt was examined using siRNA against PTEN. First, BALL-1 cells were cultured for 12, 24, and 48 hours in the presence of 3EZ,20Ac-ingenol at a final concentration of 0.5 μM, and an abundance of p-Akt was analyzed by Western blotting in the same manner as in Experimental Example 11. Cells cultured in the absence of 3EZ,20Ac-ingenol were used as controls.
Subsequently, siRNA against PTEN (“ON-TARGET Plus Human PTEN (5728) siRNA-SMARTpool,” GE Dharmacon) was introduced into BALL-1 cells at a final concentration of 50 nM and incubated for 48 hours. Subsequently, a cell medium was replaced with a new medium and cultured for 12, 24, and 48 hours in the presence or absence of 3EZ,20Ac-ingenol at a final concentration of 0.5 μM, and by Western blotting using an anti-PTEN antibody (Santa Cruz) and an anti-p-Akt (Ser^473) antibody (Cell Signaling Technology), abundances of PTEN protein and p-Akt were analyzed.

[3] = system: phosphorylated Akt (Ser^473); assay: Western blotting, p-Akt (Ser473), TKG0210 cells; format: cell-based, human; conditions: 0.5 μM
Method: as §3, §4

GSK-3β = assay: Western blotting, GSK-3β, JeKo-1 cells; format: cell-based, human; conditions: 0.5 μM, entire cell, 24 hours
Method: Specifically, first, JeKo-1 cells were cultured for 0 (control), 12, 24, and 48 hours in the presence of 0.5 μM of 3EZ,20Ac-ingenol. In addition, Panc-1 cells were cultured for 0 (control), 12, 24, and 48 hours in the presence of 3 μM of 3EZ,20Ac-ingenol.
Subsequently, abundances of GSK-3β and p-GSK-3β in the respective cells were analyzed by Western blotting using an anti-GSK-3β antibody (Cell Signaling Technology) and an anti-p-GSK-3β (Ser^9) antibody (Cell Signaling Technology). Furthermore, as a loading control, actin protein was detected using an anti-actin antibody (Sigma).

DT40 cells = conditions: stop in the G2/M phase; cited from earlier work
topoisomerase = conditions: cited from earlier work

CCCCC/C=C\C=C\C(=O)O[C@H]1C(C)=C[C@]23C(=O)[C@@H](C=C(COC(C)=O)[C@@H](O)[C@]12O)[C@H]1[C@@H](C[C@H]3C)C1(C)C [3EZ,20Ac-ingenol, 3-O-(2′E,4′Z-decadienoyl)-20-O-acetylingenol]
activation of caspase 3 (caspase 3): activation of caspase 3 was observed | phosphorylation of H2AX [1]: phosphorylation of H2AX was detected | expression level of ATR protein (ATR protein; 12 hours, further increase 24 hours after treatment): an increase in expression level of ATR protein was recognized | expression level of ATR protein (ATR protein; 48 hours after treatment): a decrease was recognized | expression level of p53 protein (p53 protein): an increase in expression level of p53 protein was recognized | abundance of p-Akt ([2]; 3 to 48 hours, entire cell fraction): down-regulation of p-Akt abundance was observed | abundance of p-Akt ([2]; 24 hours after the start of treatment (Experimental Example 16)): an abundance of p-Akt in the BALL-1 cells decreased | abundance of p-Akt ([2]; 24 hours, nuclear fraction): a moderate decrease in abundance of p-Akt was observed | abundance of p-Akt ([2]; 48 hours, cytoplasm fraction): slightly reduced; also recorded: a slight decrease in abundance of p-Akt was observed | abundance of p-Akt ([2]; 48 hours, entire cell): a decrease in abundance of phosphorylated Akt | abundance of p-Akt ([2]; 48 hours, nuclear fraction): significantly decreased; also recorded: a further decrease in abundance of p-Akt | abundance of p-Akt ([2]; cells with siRNA against PTEN introduced, after 12 hours): an increase in abundance of p-Akt was observed | abundance of p-Akt ([2]; cells with siRNA against PTEN introduced, after 24 hours and 48 hours): a decrease in abundance of p-Akt was observed | abundance of p-Akt ([3]; 24 and 48 hours, cytoplasm fraction and nuclear fraction): no decrease in abundance of p-Akt was observed | abundance of p-Akt ([3]; 48 hours, cytoplasm fraction): remained almost unchanged | abundance of p-Akt ([3]; 48 hours, entire cell): a decrease in abundance of phosphorylated Akt | abundance of p-Akt ([3]; 48 hours, nuclear fraction): remained almost unchanged | GSK-3β (an active type) (GSK-3β): an increase in GSK-3β was observed | cell proliferation of DT40 cells (DT40 cells): stops cell proliferation of DT40 cells | DNA cleavage (topoisomerase): does not cause DNA cleavage
